According to patent US9540691B2, “Assays and methods for selecting a treatment regimen for a subject with depression” (THE GENERAL HOSPITAL CORPORATION, priority 2011, dated 2017):
Where two headings read alike, the source gives them in different places.

What was measured:
[1] = test system: remitters with MDD at end of double-blind phase; settings: for Relapsers (HAM-D-17 > 15) during 12-month maintenance phase: 15 mg/day 6(S)-5-MTHF as an adjuvant
Protocol: During each visit, patients are administered the HAM-D-28, the CGI, the QIDS-SR, the SAFTEE-SI, the MGH-CPFQ, and the MGH-SFQ (See, e.g., Table 10 below). […] Subjects are also allowed to change their antidepressant during the course of the follow-up, if deemed appropriate. For patients who refuse the 12 months of free follow-up care, a referral to a psychiatrist is offered.

[2] = test system: MDD patients with at least one rare variant in an indicated SNP biomarker; settings: with an SSRI
[3] = test system: patients with major depressive disorder (MDD) resistant to treatment with SSRIs
Protocol: (§1) Documentation of the presence of any side effect or adverse event is completed at every visit using the SAFTEE-SI. Subjects can contact a clinician at any time between visits concerning adverse events or worsening of symptoms. Suicidal ideation is assessed at each visit. Subjects who are felt by the study clinician to be at high risk for suicide are discontinued from the study and referred for hospitalization and further treatment if clinically indicated (See Tables 4 & 5 below).
(§2) One-way analysis of variance can be used to assess differences in total number of SAFTEE-SI AEs between baseline and endpoint.
The study involved the enrollment of a total of 148 patients with MDD over the course of 12 months across 10 medical centers or hospitals in the United States. […] In accordance with the sequential parallel design, the 60-day, double-blind treatment was divided into two phases of 30 days each, with assessments performed every 10 days. […] For those randomly assigned to the placebo/placebo sequence, both responders and non-responders to placebo during the first phase remained on placebo during the second phase.

[4] = test system: patients with major depressive disorder (MDD) resistant to treatment with SSRIs; remark: listed apart in the source
Protocol: as §1, §2

[5] = CACNA1C rs1006737 (AG), 13(30, 16)
[6] = COMT (Val 158) rs4633 (CC), 22(18, 9)
[7] = COMT (Val 158 Met) rs4680 (GG), 33(17, 9)
[8] = DAT (SLC6A3) rs250682 (CG), 33(33, 15)
[9] = DNMT38 rs1883729 (AG), 11(13, 8)
[10] = DNMT38 rs1883729 (AG), 11/13(32, 18)
[11] = DNMT38 rs1883729 (AG), 13(19, 10)
[12] = DRD2 (H313H) rs6275 (TT), 11(10, 5)
[13] = DRD2 (SLC26A9) rs11240594 (AG), 33(36, 20)
[14] = DRD2 (Taql Br) rs1079596 (TC), 42(18, 11)
[15] = DRD2 (Taql Br) rs1079596 (TC), 42/44(18, 11)
[16] = FDRC rs2277820 (TC), 22(30, 15)
[17] = GCHFR rs7163862 (TA), 41(37, 20)
[18] = GCHI rs8007267 (TC), 42(22, 10)
[19] = GCPH or FOLH1 rs202676 (AG), 31(23, 9)
[20] = MTHFD 1 G1958A (R653Q) rs2236225 (AG), 33(28, 16)
[21] = MTHFR G1793A rs2274976 (GA), 42(19, 5)
[22] = PCYT1A rs7639752 (AA), 11(12, 7)
[23] = RCF1 A > G rs2297291 (AA), 11(12, 7)
[24] = RCF2 (in SLC19A3) rs12659 (TT), 11(10, 7)
[25] = RCFI (in SLC19A1) rs1051266 (AA), 44(11, 6)
[26] = L-methylfolate 7.5 mg (n = 24) with SSRI
[27] = L-methylfolate 7.5 mg vs placebo
[28] = L-methylfolate 16 mg (n = 30) with SSRI
[29] = L-methylfolate 16 mg vs placebo
[30] = L-methylfolate 15 mg (n = 42) with SSRI
[31] = L-methylfolate 15 mg vs placebo

What does the source list for `CN1c2c(nc(N)[nH]c2=O)NC[C@@H]1CNc1ccc(C(=O)N[C@@H](CCC(=O)O)C(=O)O)cc1` [6(S)-5-MTHF, 6(S)-5-methyltetrahydrofolate]?
Relapsers (HAM-D-17 > 15) during 12-month maintenance phase ([1]; Trial 1 remitters (2 entering)): 0; Relapsers (HAM-D-17 > 15) during 12-month maintenance phase ([1]; Trial 2 remitters (9 entering)): 0; relapse during 12-month maintenance phase (in words) ([1]; remitters at end of double-blind phase, adjunctive 15 mg/day): did not have a relapse; EFFECT on change in HAMD-28, PHASE I [2, 5]: −8.006; EFFECT on change in HAMD-28, PHASE II [2, 5]: −2.467; EFFECT on change in HAMD-28, POOLED PHASES [2, 5]: −4.633; EFFECT on change in HAMD-28, PHASE I [2, 6]: −10.070; EFFECT on change in HAMD-28, PHASE II [2, 6]: −10.170; EFFECT on change in HAMD-28, POOLED PHASES [2, 6]: −9.240; EFFECT on change in HAMD-28, PHASE I [2, 7]: −12.070; EFFECT on change in HAMD-28, PHASE II [2, 7]: −10.170; EFFECT on change in HAMD-28, POOLED PHASES [2, 7]: −10.880; EFFECT on change in HAMD-28, PHASE I [2, 8]: −5.722; EFFECT on change in HAMD-28, PHASE II [2, 8]: −5.768; EFFECT on change in HAMD-28, POOLED PHASES [2, 8]: −4.996; EFFECT on change in HAMD-28, PHASE I [2, 9]: −2.318; EFFECT on change in HAMD-28, PHASE II [2, 9]: −5.267; EFFECT on change in HAMD-28, POOLED PHASES [2, 9]: −4.811; EFFECT on change in HAMD-28, PHASE I [2, 10]: −6.340; EFFECT on change in HAMD-28, PHASE II [2, 10]: −4.940; EFFECT on change in HAMD-28, POOLED PHASES [2, 10]: −5.360; EFFECT on change in HAMD-28, PHASE I [2, 11]: −8.097; EFFECT on change in HAMD-28, PHASE II [2, 11]: −4.667; EFFECT on change in HAMD-28, POOLED PHASES [2, 11]: −6.748; EFFECT on change in HAMD-28, PHASE I [2, 12]: −16.560; EFFECT on change in HAMD-28, PHASE II [2, 12]: 1.667; EFFECT on change in HAMD-28, POOLED PHASES [2, 12]: −7.627; EFFECT on change in HAMD-28, PHASE I [2, 13]: −5.018; EFFECT on change in HAMD-28, PHASE II [2, 13]: −3.424; EFFECT on change in HAMD-28, POOLED PHASES [2, 13]: −3.758; EFFECT on change in HAMD-28, PHASE I [2, 14]: −10.640; EFFECT on change in HAMD-28, PHASE II [2, 14]: −3.893; EFFECT on change in HAMD-28, POOLED PHASES [2, 14]: −6.903; EFFECT on change in HAMD-28, PHASE I [2, 15]: −10.640; EFFECT on change in HAMD-28, PHASE II [2, 15]: −3.893; EFFECT on change in HAMD-28, POOLED PHASES [2, 15]: −6.903; EFFECT on change in HAMD-28, PHASE I [2, 16]: −2.634; EFFECT on change in HAMD-28, PHASE II [2, 16]: −6.232; EFFECT on change in HAMD-28, POOLED PHASES [2, 16]: −4.027; EFFECT on change in HAMD-28, PHASE I [2, 17]: −6.380; EFFECT on change in HAMD-28, PHASE II [2, 17]: −4.542; EFFECT on change in HAMD-28, POOLED PHASES [2, 17]: −4.863; EFFECT on change in HAMD-28, PHASE I [2, 18]: −7.729; EFFECT on change in HAMD-28, PHASE II [2, 18]: −5.417; EFFECT on change in HAMD-28, POOLED PHASES [2, 18]: −6.654; EFFECT on change in HAMD-28, PHASE I [2, 19]: −7.314; EFFECT on change in HAMD-28, PHASE II [2, 19]: −3.300; EFFECT on change in HAMD-28, POOLED PHASES [2, 19]: −5.402; EFFECT on change in HAMD-28, PHASE I [2, 20]: −2.742; EFFECT on change in HAMD-28, PHASE II [2, 20]: −3.762; EFFECT on change in HAMD-28, POOLED PHASES [2, 20]: −3.496; EFFECT on change in HAMD-28, PHASE I [2, 21]: −5.333; EFFECT on change in HAMD-28, PHASE II [2, 21]: 2.833; EFFECT on change in HAMD-28, POOLED PHASES [2, 21]: −5.551; EFFECT on change in HAMD-28, PHASE I [2, 22]: −10.400; EFFECT on change in HAMD-28, PHASE II [2, 22]: −3.900; EFFECT on change in HAMD-28, POOLED PHASES [2, 22]: −6.216; EFFECT on change in HAMD-28, PHASE I [2, 23]: −8.778; EFFECT on change in HAMD-28, PHASE II [2, 23]: −1.400; EFFECT on change in HAMD-28, POOLED PHASES [2, 23]: −5.458; EFFECT on change in HAMD-28, PHASE I [2, 24]: −7.571; EFFECT on change in HAMD-28, PHASE II [2, 24]: −1.400; EFFECT on change in HAMD-28, POOLED PHASES [2, 24]: −4.860; EFFECT on change in HAMD-28, PHASE I [2, 25]: −10.000; EFFECT on change in HAMD-28, PHASE II [2, 25]: −2.750; EFFECT on change in HAMD-28, POOLED PHASES [2, 25]: −7.673; Cardiovascular side effects, Frequency (%) [3, 26]: 0 (0%); Gastrointestinal side effects, Frequency (%) [3, 26]: 9 (9.8%); Infectious side effects, Frequency (%) [3, 26]: 6 (6.4%); Miscellaneous side effects, Frequency (%) [3, 26]: 1 (1.1%); Paychological [sic] side effects, Frequency (%) [3, 26]: 2 (2.1%); Sexual side effects, Frequency (%) [3, 26]: 0 (0%); Sleep side effects, Frequency (%) [3, 26]: 3 (3.2%); Somatic side effects, Frequency (%) [3, 26]: 9 (8.6%); Cardiovascular side effects, NNH [3, 27]: < placebo; Gastrointestinal side effects, NNH [3, 27]: < placebo; Infectious side effects, NNH [3, 27]: < placebo; Miscellaneous side effects, NNH [3, 27]: < placebo; Paychological [sic] side effects, NNH [3, 27]: < placebo; Sexual side effects, NNH [3, 27]: =placebo; Sleep side effects, NNH [3, 27]: < placebo; Somatic side effects, NNH [3, 27]: < placebo; Cardiovascular side effects, Frequency (%) [3, 28]: 2 (6.7%); Gastrointestinal side effects, Frequency (%) [3, 28]: 3 (10.0%); Infectious side effects, Frequency (%) [3, 28]: 2 (6.7%); Miscellaneous side effects, Frequency (%) [3, 28]: 2 (6.7%); Paychological [sic] side effects, Frequency (%) [3, 28]: 2 (6.7%); Sexual side effects, Frequency (%) [3, 28]: 0 (0%); Sleep side effects, Frequency (%) [3, 28]: 2 (6.7%); Somatic side effects, Frequency (%) [3, 28]: 3 (10.0%); Cardiovascular side effects, NNH [3, 29]: < placebo; Gastrointestinal side effects, NNH [3, 29]: < placebo; Infectious side effects, NNH [3, 29]: < placebo; Miscellaneous side effects, NNH [3, 29]: < placebo; Paychological [sic] side effects, NNH [3, 29]: < placebo; Sexual side effects, NNH [3, 29]: =placebo; Sleep side effects, NNH [3, 29]: < placebo; Somatic side effects, NNH [3, 29]: < placebo; adverse side effect when administered with an SSRI (in words) ([3]; Trial 1): does not appear to cause any adverse side effect; Cardiovascular side effects, Frequency (%) [4, 30]: (0%); Cardiovascular side effects, Frequency (number of subjects) [4, 30]: 0; Gastrointestinal side effects, Frequency (number of subjects) [4, 30]: 7; Infectious side effects, Frequency (number of subjects) [4, 30]: 5; Miscellaneous side effects, Frequency (%) [4, 30]: (2.4%); Miscellaneous side effects, Frequency (number of subjects) [4, 30]: 1; Psychological side effects, Frequency (%) [4, 30]: (9.5%); Psychological side effects, Frequency (number of subjects) [4, 30]: 4; Sexual side effects, Frequency (%) [4, 30]: (2.4%); Sexual side effects, Frequency (number of subjects) [4, 30]: 1; Sleep side effects, Frequency (%) [4, 30]: (2.4%); Sleep side effects, Frequency (number of subjects) [4, 30]: 1; Somatic side effects, Frequency (number of subjects) [4, 30]: 6; Cardiovascular side effects, NNH [4, 31]: =placebo; Gastrointestinal side effects, NNH [4, 31]: 53; Infectious side effects, NNH [4, 31]: <placebo; Miscellaneous side effects, NNH [4, 31]: <placebo; Psychological side effects, NNH [4, 31]: <placebo; Sexual side effects, NNH [4, 31]: 98; Sleep side effects, NNH [4, 31]: <placebo; Somatic side effects, NNH [4, 31]: <placebo; number of adverse events by SAFTEE-SI vs placebo (in words) ([4]; SSRI + 15 mg/day): no significant differences; discontinuation from the study due to overall adverse side-effects or exclusion events (in words) ([4]; Trial 2, FIG. 3E): no difference
